Results reported in patent US10768157B2, “Materials and methods for the detection of trace amounts of substances in biological and environmental samples” (THE FLORIDA INTERNATIONAL UNIVERSITY BOARD OF TRUSTEES, priority 2015, dated 2020).
Read-outs that look alike come from different tables or passages of the source.

What was measured:
[1] = Maximum adsorption capacity of the sol-gel molecularly imprinted sorbent (six sulfa drugs); format: binding; details: 30 mg MIP, mixture of 6 sulfa drugs 10-1000 mg/L
Protocol: In order to calculate the sorption capacity at equilibrium a SPE cartridge packed with 30 mg of MIP particles was used. Experiments under optimum conditions were carried out sequentially on the same SPE cartridge. In each subsequent test, the initial concentration was increased in a range 10-1000 ng μL^-1 and the final concentration was determined by HPLC-DAD. The amount of adsorbed (mg/g) was calculated by using the formula reported by Vanderborght and Van […]:00002} Were Ci is the initial concentration (mg/L), Ce is the equilibrium concentration (mg/L), V is the volume (L) and m is the mass (g) of the adsorbent. […] The final Ce concentrations were calculated on HPLC. The maximum capacity (Q, mg/g) for each of the six compounds was determined with the above equation. The results are represented in FIG. 12.

[2] = Selectivity: imprinting factor of multi-template sol-gel MIP vs NIP; format: binding; details: extraction from protein precipitated milk
Protocol: The selectivity of MIP particles for the six sulfonamides was tested. For these experiments were used SPE cartridges packed with 30 mg of MIP and NIP particles respectively. Standard solutions containing 5 ng μL^−1 were passed through the SPE cartridges by holding imprinted or non-imprinted particles at a flow rate of 1 mL/min by the aid of a vacuum system. Several antibiotics have similar structure to the sulfonamides as well as antibiotics with different structure and functional groups were studied (chloramphenicol, thiamphenicol, florphenicol, flumequine, sulfisoxazole, sulfamethoxazole, sulfadimethoxine). The extraction on each antibiotic based on the optimum conditions and the extracted antibiotics were determined by the HPLC system. Imprinting factor (IF) of MIP particles was determined by the following equation: […] Capacity Studies […] So, SPE was prepared for MIP and NIP. Imprinting factor (IF), which is an indicators, express the adsorption affinity of recognition sites to the imprinted sulfonamides. Table 12 summarizes the IF values for the examined sulfonamides when extraction was carried out from protein precipitated milk.

[3] = Selectivity study of CAP-imprinted sol-gel MIP vs sol-gel NIP in MIPSPE column (imprinting factor, selectivity coefficient), HPLC-UV; format: binding; details: for Selectivity Coefficient (SC): SC=IF CAP/IF other analyte, untreated raw milk; for Imprinting Factor (IF): extraction from untreated raw milk, sol-gel MIP vs NIP
Description: To establish the selectivity of a sol-gel MIP for a particular analyte, a non-imprinted polymer (sol-gel NIP) is synthesized in the same way as sol-gel MIP but in the absence of the template.
The IF reflects the tendency of the MIP to selectively recognize and bind the template. Competitive adsorption of MIP and NIP for CAP was investigated in a MIPSPE column system. The IF and the selectivity coefficient (SC) are indicators of the adsorption affinity of recognition sites to the imprinted CAP.
The selectivity of sol-gel MIP particles for CAP was studied. For this purpose, 30 mg of sol-gel MIP or sol-gel NIP particles were packed in SPE cartridges. Aqueous sample solutions containing 10 ng/mL CAP was passed through the SPE cartridges holding imprinted or non-imprinted particles at a flow rate of 1 mL/min by the aid of a vacuum system. Elution of the extracted chloramphenicol was performed using methanol and the concentration of chloramphenicol was determined by the HPLC-UV method.
Imprinting factor (IF) of sol-gel MIP particles was determined by the following equation: IF=Kmip/Knip where Kmip and Knip are the partition coefficient of analyte for sol-gel MIP and sol-gel NIP, respectively, which are determined by K=Cb/Cu where Cb is the amount of CAP bound by the sol-gel MIP or sol-gel NIP and Cu is the concentration of free chloramphenicol that remained in the solution.
Selectivity coefficient (SC) was calculated by the following equation: SC=IFCAP/IFother_analyte

[4] = Retention (sorption) capacity of the CAP-imprinted sol-gel sorbent; format: binding; details: 30 mg polymer saturated with 100 mg/L CAP solution
Protocol: To determine the retention capacity (or sorption capacity) of the sol-gel derived CAP-imprinted polymer (maximum amount of the template retained by 1 g of MIP), 30 mg of polymer were saturated with CAP by passing several 5.0 mL aliquots of 100 mg/L CAP solution.

[5] = Stability of CAP standard solutions; format: physicochemical
[6] = cited from earlier work
[7] = Honey, Magnetic SPE, LC-MS/MS (ref a)

Compound	Adsorption Capacity, Q [1] [mg/g]	Imprinting Factor (IF) [2]	Imprinting Factor (IF) [3]	further results
CC(=O)NS(=O)(=O)c1ccc(N)cc1 [Sulfacetamide]	5.1	2.70	–	–
Nc1ccc(S(=O)(=O)Nc2ncccn2)cc1 [Sulfadiazine]	4.2	1.70	–	–
Cc1ccnc(NS(=O)(=O)c2ccc(N)cc2)n1 [Sulfamerazine]	3.7	1.13	–	–
Nc1ccc(S(N)(=O)=O)cc1 [Sulfanilamide]	–	1.56	–	–
Nc1ccc(S(=O)(=O)Nc2nccs2)cc1 [Sulfathiazole]	9.8	3.90	–	–
CS(=O)(=O)c1ccc([C@@H](O)[C@@H](CO)NC(=O)C(Cl)Cl)cc1 [THF, thiamphenicol]	–	–	1.9	Selectivity Coefficient (SC) [3]: 2.6
Chloramphenicol [CAP]	–	–	5	Imprinting factor (IF), maximum ([3]; CAP, protein precipitated milk, MIP relative to NIP): 9.7; Retention capacity / adsorption capacity of CAP [4]: 23 mg/g; Retention capacity / adsorption capacity of CAP ([4]; listed as chloramphenicol): 23.0 mg/g; Stability of working standard solutions ([5]; 0.05-20 ng/μL in water, refrigerated): stable for the same period of time; Stability of stock solution ([5]; 100 mg/L in water, kept at 4° C.): at least 3 months; Imprinting Factor ([6]; Honey, MISPE, HPLC-UV (ref f)): 2.2; Adsorption Capacity [6, 7]: 5.53 mg/g; Imprinting Factor [6, 7]: 1.375; Imprinting Factor ([6]; Honey/Urine, MISPE, LC-MS/MS (ref d)): 2.43; Adsorption Capacity ([6]; Milk, MISPE, HPLC-UV (ref e)): 2.22 mg/g; Imprinting Factor ([6]; Milk, MISPE, HPLC-UV (ref e)): 1.38
Sulfamethizole	–	4.52	–	–
florfenicol [FFC]	–	–	1.8	Selectivity Coefficient (SC) [3]: 2.8
